Results taken from patent US10993983B2, “Cyclic peptide epitopes and small-molecule mimics for inducing autophagy” (TRUSTEES OF TUFTS COLLEGE, priority 2016, dated 2021).
Marks after values point to notes of the source that are not given here.

Assays:
[1] = system: p62; assay: p62 degradation assay (p62/actin immunoblot);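 on Activity (μM) 10, p62/actin assay activity: HeLa cells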;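 on Activity (μM) 100, p62/actin assay activity: HeLa cells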;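 on Activity (μM) 30, p62/actin assay activity: HeLa cells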;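 on Activity (μM) 50, p62/actin assay activity: HeLa cells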; type: cell-based; parameters: key: −: activity not reported; 0: decreased vs. WT; +: similar to WT; ++: modest increase vs. WT; +++: significant increase vs. WT; settings: first symbol; for Activity (μM) 10, p62/actin assay activity: 10 μM; for Activity (μM) 30, p62/actin assay activity: 30 μM; for Activity (μM) 50, p62/actin assay activity: 50 μM; for Activity (μM) 100, p62/actin assay activity: 100 μM; for Activity (μM) 5, p62/actin assay activity: 5 μM
Protocol: (§1) Cells were treated with peptide in OPTI-MEM (Thermo Scientific) acidified with 0.15% (v/v) 6N HCl for 3 hour. Cells were rinsed with Dulbecco's phosphate buffered saline (PBS) and lysed in lysis buffer (20 mM HEPES, 150 mM NaCl, 1 mM EDTA, 1% Triton X-100, protease inhibitor cocktail (Roche) on ice for 1 hour. Cell lysates were centrifuged at 16,000 g for 10 min at 4° C. and analyzed by SDS-PAGE and transferred to PVDF membranes. The membranes were blocked 5% non-fat dry milk (NFDM) in PBST (PBS+0.05% Tween-20) for 1 hour, then incubated overnight at 4° C. with primary antibody in 5% NFDM in PBST. The blots were washed with PBST and incubated with HRP-conjugated secondary antibodies diluted in 5% NFDM in PBST for 1 hour at room temperature. Membranes were washed with PBST and visualized with SuperSignal West Pico Chemiluminescent Substrate (Thermo Scientific). Semi-quantitative results were obtained by noting the lowest concentration at which both p62 degradation and LC3-I to LC3-II conversion were observed.
(§2) Compounds 1-10 were evaluated using the assays described in Examples 4 and 5. Activity for each compound was measured in the p62 degradation assay and the LC3 marker assay as described herein. The activity at each concentration of peptide is given as, for example, (0/+) where 0 would be the p62/actin assay activity and + would be the LC3 assay activity.

[2] = system: LC3; assay: LC3 marker assay (LC3-I to LC3-II conversion immunoblot);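 on Activity (μM) 10, LC3 assay activity: HeLa cells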;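 on Activity (μM) 100, LC3 assay activity: HeLa cells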;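 on Activity (μM) 30, LC3 assay activity: HeLa cells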;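 on Activity (μM) 50, LC3 assay activity: HeLa cells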; type: cell-based; parameters: key: −: activity not reported; 0: decreased vs. WT; +: similar to WT; ++: modest increase vs. WT; +++: significant increase vs. WT; settings: second symbol; for Activity (μM) 10, LC3 assay activity: 10 μM; for Activity (μM) 30, LC3 assay activity: 30 μM; for Activity (μM) 50, LC3 assay activity: 50 μM; for Activity (μM) 100, LC3 assay activity: 100 μM; for Activity (μM) 5, LC3 assay activity: 5 μM
Protocol: as §1, §2

[3] = Table 8, 10 μM marked * (footnote: data taken at 20 instead of 30 μM)

## VCNATCHIWH [Compound 26]
[1]; Table 6, control DMSO
  Activity (μM) 10, p62/actin assay activity: ++
  Activity (μM) 30, p62/actin assay activity: +++/+++
  Activity (μM) 50, p62/actin assay activity: +++/+++
  Activity (μM) 100, p62/actin assay activity: +++/+++
[2]; Table 6, control DMSO
  Activity (μM) 10, LC3 assay activity: +++
  Activity (μM) 30, LC3 assay activity: +++/+++
  Activity (μM) 50, LC3 assay activity: +++/+++
  Activity (μM) 100, LC3 assay activity: +++/+++

## VCNATCHIWH [Compound 27]
[1]; Table 7, control compound T25
  Activity (μM) 30, p62/actin assay activity: 0/0
  Activity (μM) 50, p62/actin assay activity: 0/0
  Activity (μM) 100, p62/actin assay activity: 0/0
[2]; Table 7, control compound T25
  Activity (μM) 30, LC3 assay activity: 0/0
  Activity (μM) 50, LC3 assay activity: 0/0
  Activity (μM) 100, LC3 assay activity: 0/0

## VCNATCHIWH [Compound 28]
[1]; Table 7, control compound T25
  Activity (μM) 30, p62/actin assay activity: 0/0
  Activity (μM) 50, p62/actin assay activity: 0/0
  Activity (μM) 100, p62/actin assay activity: +++
[2]; Table 7, control compound T25
  Activity (μM) 30, LC3 assay activity: 0/0
  Activity (μM) 50, LC3 assay activity: 0/0
  Activity (μM) 100, LC3 assay activity: 0

## VCNATCHIWH [Compound 29]
[1]; Table 7, control compound T25
  Activity (μM) 30, p62/actin assay activity: 0/0
  Activity (μM) 50, p62/actin assay activity: +
  Activity (μM) 100, p62/actin assay activity: ++
[2]; Table 7, control compound T25
  Activity (μM) 30, LC3 assay activity: 0/0
  Activity (μM) 50, LC3 assay activity: 0
  Activity (μM) 100, LC3 assay activity: 0

## VCNATCHIWH [Compound 30]
[1]; Table 7, control compound T25
  Activity (μM) 30, p62/actin assay activity: 0/0
  Activity (μM) 50, p62/actin assay activity: 0/0
  Activity (μM) 100, p62/actin assay activity: +
[1]; Table 8, control compound T25
  Activity (μM) 30, p62/actin assay activity: 0/0
  Activity (μM) 50, p62/actin assay activity: 0/0
  Activity (μM) 100, p62/actin assay activity: 0/0
[1]; [3]
  Activity (μM) 10, starred cell, p62/actin assay activity: 0/0*
[2]; Table 7, control compound T25
  Activity (μM) 30, LC3 assay activity: 0/0
  Activity (μM) 50, LC3 assay activity: 0/0
  Activity (μM) 100, LC3 assay activity: 0
[2]; Table 8, control compound T25
  Activity (μM) 30, LC3 assay activity: 0/0
  Activity (μM) 50, LC3 assay activity: 0/0
  Activity (μM) 100, LC3 assay activity: 0/0
[2]; [3]
  Activity (μM) 10, starred cell, LC3 assay activity: 0/0*

## VCNATCHIWH [Compound 31]
[1]; Table 7, control compound T25
  Activity (μM) 30, p62/actin assay activity: 0/0
  Activity (μM) 50, p62/actin assay activity: 0/0
  Activity (μM) 100, p62/actin assay activity: 0/0
[2]; Table 7, control compound T25
  Activity (μM) 30, LC3 assay activity: 0/0
  Activity (μM) 50, LC3 assay activity: 0/0
  Activity (μM) 100, LC3 assay activity: 0/0

## VCNATCHIWH [Compound 32]
[1]; Table 7, control compound T25
  Activity (μM) 30, p62/actin assay activity: ++
  Activity (μM) 50, p62/actin assay activity: ++
  Activity (μM) 100, p62/actin assay activity: ++
[2]; Table 7, control compound T25
  Activity (μM) 30, LC3 assay activity: 0
  Activity (μM) 50, LC3 assay activity: 0
  Activity (μM) 100, LC3 assay activity: 0

## VCNATCHIWH [Compound 33]
[1]; Table 8, control compound T25
  Activity (μM) 5, p62/actin assay activity: 0/0
  Activity (μM) 10, p62/actin assay activity: 0
  Activity (μM) 30, p62/actin assay activity: +++
  Activity (μM) 50, p62/actin assay activity: +++/+++
  Activity (μM) 100, p62/actin assay activity: +++/+++
[2]; Table 8, control compound T25
  Activity (μM) 5, LC3 assay activity: 0/0
  Activity (μM) 10, LC3 assay activity: +
  Activity (μM) 30, LC3 assay activity: ++
  Activity (μM) 50, LC3 assay activity: +++/+++
  Activity (μM) 100, LC3 assay activity: +++/+++

## VCNATCHIWH [Compound 34]
[1]; Table 8, control compound T25
  Activity (μM) 5, p62/actin assay activity: 0/0
  Activity (μM) 10, p62/actin assay activity: 0/0
  Activity (μM) 30, p62/actin assay activity: +
  Activity (μM) 50, p62/actin assay activity: +++/+++
  Activity (μM) 100, p62/actin assay activity: +++/+++
[2]; Table 8, control compound T25
  Activity (μM) 5, LC3 assay activity: 0/0
  Activity (μM) 10, LC3 assay activity: 0/0
  Activity (μM) 30, LC3 assay activity: ++
  Activity (μM) 50, LC3 assay activity: +++/+++
  Activity (μM) 100, LC3 assay activity: +++/+++
